Measurements taken from patent publication US20240216401A1, “COMBINATION THERAPY BY USING AKR1C3-ACTIVATED COMPOUND WITH IMMUNE CHECKPOINT INHIBITOR” (OBI Pharma, Inc., priority 2021, published 2024).
Where “and” joins values, the source holds several entries; their conditions need not be identical. Equal entries are not always repeated.

What was measured:
Assay type in all cases: in vivo, Mus musculus
[1] = tested on: Calreticulin cells in tumor-infiltrating lymphocytes; test: Example 2: flow cytometry, percentage of Calreticulin cells in TILs; details: G3: OBI-3424 1 mg/kg; TILs from tumor; individual mice and group Mean; 1 mg/kg; group mean
Experimental: (§1) Mice were sacrificed by CO2 euthanasia at the end of the study duration, and the connective tissue around tumor was resected. The tumor samples were then weighed and cut equally into three sections if the tumor weight over 400 mg. The tumor tissue was prepared for the isolation of tumor-infiltrating lymphocytes (TILs). The rest of one section was fixed in 10% formaldehyde and embedded in paraffin; the other was stored at a temperature below −70° C.
(§2) The tumor samples were dissected into smaller fragments using scalpels and then digested with a cocktail of collagenase, DNase I, and Hyaluronidase (Collagenase #C5138, DNase I #D5025, Hyaluronidase #H6254, SigmaAldrich) for at least 2 hours.
(§3) Cells were stained with the fluorescently conjugated surface antibodies and incubated for 30 minutes at 4° C., and then resuspended in staining buffer for flow cytometric analysis. Flow cytometry was done using a Navios EX Flow Cytometer (Beckman Coulter). Data were analyzed using the Kaluza Analysis Software (Beckman Coulter).

[2] = tested on: NK cells in tumor-infiltrating lymphocytes; test: Example 2: flow cytometry, percentage of NK cells in TILs; details: individual animals and Mean
Experimental: as §1, §2, §3

[3] = tested on: Dendritic cells in tumor-infiltrating lymphocytes; test: Example 2: flow cytometry, percentage of Dendritic cells in TILs; details: individual animals and Mean
Experimental: as §1, §2, §3

[4] = G2: OBI-3424 (0.3 mg/kg), 0.3 mg/kg
[5] = G2: OBI-3424 (0.3 mg/kg), 0.3 mg/kg, mean
[6] = G3: OBI-3424 (1 mg/kg), 1 mg/kg
[7] = G3: OBI-3424 (1 mg/kg), 1 mg/kg, mean

C[C@H](OP(=O)(N1CC1)N1CC1)c1ccc([N+](=O)[O-])c(Oc2cccc(C(=O)N(C)C)c2)c1 [OBI-3424, (S)-1-(3-(3-N,N-dimethylaminocarbonyl)phenoxyl-4-mtrophenyl)-1-ethyl-N,N′-bis(ethylene)phosphoramidate]
Calreticulin cells (CD45^− Calreticulin^+) CTL Gated % [1]: 4.15%
Calreticulin cells (CD45^− Calreticulin^+) Total % [1]: 0.38%
Total CD45^− cells (CD45^−) CD45^+ Gated % [1]: 13.64%
Total CD45^− cells (CD45^−) Total % [1]: 11.87%
NK cells (CD45^+CD56^+) CD45^+ Gated % [2, 4]: 6.33% and 8.78% and 8.87% and 10.05% and 2.25% and 6.70%
NK cells (CD45^+CD56^+) Cell count [2, 4]: 2.30 ×10^5 and 6.67 ×10^5 and 20.68 ×10^5 and 1.46 ×10^5 and 2.47 ×10^5 and 1.84 ×10^5
NK cells (CD45^+CD56^+) Total % [2, 4]: 1.18% and 3.26% and 3.83% and 6.83% and 1.00% and 2.54%
PD-1^+ NK cells (CD45^+CD56^+PD-1^+) Cell count [2, 4]: 1.65 ×10^5 and 2.21 ×10^5 and 10.85 ×10^5 and 0.31 ×10^5 and 2.17 ×10^5 and 0.83 ×10^5
PD-1^+ NK cells (CD45^+CD56^+PD-1^+) NK Gated % [2, 4]: 71.96% and 33.17% and 52.46% and 21.08% and 87.65% and 44.79%
PD-1^+ NK cells (CD45^+CD56^+PD-1^+) Total % [2, 4]: 0.85% and 1.08% and 2.01% and 1.44% and 0.88% and 1.14%
NK cells (CD45^+CD56^+) CD45^+ Gated % [2, 5]: 7.16%
NK cells (CD45^+CD56^+) Cell count [2, 5]: 5.90 ×10^5
NK cells (CD45^+CD56^+) Total % [2, 5]: 3.11%
PD-1^+ NK cells (CD45^+CD56^+PD-1^+) Cell count [2, 5]: 3.00 ×10^5
PD-1^+ NK cells (CD45^+CD56^+PD-1^+) NK Gated % [2, 5]: 51.85%
PD-1^+ NK cells (CD45^+CD56^+PD-1^+) Total % [2, 5]: 1.23%
NK cells (CD45^+CD56^+) CD45^+ Gated % [2, 6]: 3.99% (2×) and 5.65% and 6.00% and 4.05% and 4.24%
NK cells (CD45^+CD56^+) Cell count [2, 6]: 0.77 ×10^5 and 4.27 ×10^5 and 2.08 ×10^5 and 2.41 ×10^5 and 1.96 ×10^5 and 1.99 ×10^5
NK cells (CD45^+CD56^+) Total % [2, 6]: 2.64% and 3.38% and 2.95% and 2.44% and 2.63% and 2.46%
PD-1^+ NK cells (CD45^+CD56^+PD-1^+) Cell count [2, 6]: 0.26 ×10^5 and 1.64 ×10^5 and 1.02 ×10^5 and 1.77 ×10^5 (2×) and 1.04 ×10^5
PD-1^+ NK cells (CD45^+CD56^+PD-1^+) NK Gated % [2, 6]: 34.34% and 38.34% and 48.85% and 73.40% and 53.12% and 88.62%
PD-1^+ NK cells (CD45^+CD56^+PD-1^+) Total % [2, 6]: 0.91% and 1.30% and 1.44% and 1.79% and 1.40% and 2.18%
NK cells (CD45^+CD56^+) CD45^+ Gated % [2, 7]: 4.65%
NK cells (CD45^+CD56^+) Cell count [2, 7]: 2.25 ×10^5
NK cells (CD45^+CD56^+) Total % [2, 7]: 2.75%
PD-1^+ NK cells (CD45^+CD56^+PD-1^+) Cell count [2, 7]: 1.25 ×10^5
PD-1^+ NK cells (CD45^+CD56^+PD-1^+) NK Gated % [2, 7]: 56.11%
PD-1^+ NK cells (CD45^+CD56^+PD-1^+) Total % [2, 7]: 1.50%
CD86^+ DC cells (CD45^+CD11c^+CD86^+) Cell count [3, 4]: 6.36 ×10^5 and 14.34 ×10^5 and 27.59 ×10^5 and 1.25 ×10^5 and 15.63 ×10^5 and 4.71 ×10^5
CD86^+ DC cells (CD45^+CD11c^+CD86^+) Total % [3, 4]: 3.27% and 7.01% and 5.11% and 5.82% and 6.34% and 6.50%
CD91^+ DC cells (CD45^+CD11c^+CD91^+) Cell count [3, 4]: 0.18 ×10^5 and 0.16 ×10^5 and 0.54 ×10^5 and 0.02 ×10^5 and 0.22 ×10^5 and 0.04 ×10^5
CD91^+ DC cells (CD45^+CD11c^+CD91^+) Total % [3, 4]: 0.09% (2×) and 0.08% (2×) and 0.10% and 0.06%
DC cells (CD45^+CD11c^+) CD45+ Gated % [3, 4]: 32.90% and 30.81% and 44.83% and 19.60% and 24.30% and 36.70%
DC cells (CD45^+CD11c^+) Cell count [3, 4]: 10.62 ×10^5 and 23.35 ×10^5 and 105.79 ×10^5 and 2.74 ×10^5 and 25.44 ×10^5 and 9.18 ×10^5
DC cells (CD45^+CD11c^+) Total % [3, 4]: 5.46% and 11.42% and 19.59% and 12.80% and 10.32% and 12.66%
CD86^+ DC cells (CD45^+CD11c^+CD86^+) Cell count [3, 5]: 11.65 ×10^5
CD86^+ DC cells (CD45^+CD11c^+CD86^+) Total % [3, 5]: 5.68%
CD91^+ DC cells (CD45^+CD11c^+CD91^+) Cell count [3, 5]: 0.19 ×10^5
CD91^+ DC cells (CD45^+CD11c^+CD91^+) Total % [3, 5]: 0.08%
DC cells (CD45^+CD11c^+) CD45+ Gated % [3, 5]: 31.52%
DC cells (CD45^+CD11c^+) Cell count [3, 5]: 29.52 ×10^5
DC cells (CD45^+CD11c^+) Total % [3, 5]: 12.04%
CD86^+ DC cells (CD45^+CD11c^+CD86^+) Cell count [3, 6]: 2.23 ×10^5 and 10.59 ×10^5 and 5.46 ×10^5 and 6.73 ×10^5 and 6.98 ×10^5 and 7.11 ×10^5
CD86^+ DC cells (CD45^+CD11c^+CD86^+) Total % [3, 6]: 7.68% and 8.39% and 7.73% and 6.81% and 9.38% and 8.78%
CD91^+ DC cells (CD45^+CD11c^+CD91^+) Cell count [3, 6]: 0.04 ×10^5 (2×) and 0.10 ×10^5 and 0.06 ×10^5 (2×) and 0.08 ×10^5
CD91^+ DC cells (CD45^+CD11c^+CD91^+) Total % [3, 6]: 0.14% and 0.08% (2×) and 0.09% and 0.06% and 0.07%
DC cells (CD45^+CD11c^+) CD45+ Gated % [3, 6]: 23.54% and 31.09% and 41.01% and 19.89% and 35.18% and 28.58%
DC cells (CD45^+CD11c^+) Cell count [3, 6]: 4.40 ×10^5 and 23.57 ×10^5 and 13.84 ×10^5 and 12.22 ×10^5 and 16.67 ×10^5 and 14.15 ×10^5
DC cells (CD45^+CD11c^+) Total % [3, 6]: 15.16% and 18.68% and 19.60% and 12.37% and 22.41% and 17.47%
CD86^+ DC cells (CD45^+CD11c^+CD86^+) Cell count [3, 7]: 6.52 ×10^5
CD86^+ DC cells (CD45^+CD11c^+CD86^+) Total % [3, 7]: 8.13%
CD91^+ DC cells (CD45^+CD11c^+CD91^+) Cell count [3, 7]: 0.06 ×10^5
CD91^+ DC cells (CD45^+CD11c^+CD91^+) Total % [3, 7]: 0.09%
DC cells (CD45^+CD11c^+) CD45+ Gated % [3, 7]: 29.88%
DC cells (CD45^+CD11c^+) Cell count [3, 7]: 14.14 ×10^5
DC cells (CD45^+CD11c^+) Total % [3, 7]: 17.62%
